66 compounds from PubChem BioAssay AID624404 (Broad Institute, 2012) can be followed below.

Results filed as inconclusive are left out.

This experiment deals with D54 LucT luciferase reporter counterscreen, luminescence, 24 h. Briefly: luciferase activators in glycosylation-insensitive reporter cells, dose response, counter-screen for N-linked glycosylation inhibitor project, D54 LucT cells, luminescence, cherry pick (AID 624404). (A counterscreen serves to expose hits that act by an unwanted route or on another target.)
With `COc1cc(/C=C2\SC(=S)N(CCC(=O)N3CCCCC3)C2=O)cc(OC)c1OC`, the AC35 was 3440 nM.
As for `CC[C@H](C)C(=O)O[C@H]1CCC=C2C=C[C@H](C)[C@H](CC[C@@H]3C[C@@H](O)CC(=O)O3)[C@H]21`, the AC35 was 1260 nM.
As to `Cc1ccc(NCCN(C)C)c2c(=O)c3cc(O)ccc3sc12`, the AC35 was 5710 nM.
Consider `CC(Nc1nc(-c2cccnc2)nc2ccccc12)c1ccccc1` (stereo unspecified), for which the AC35 is 1050 nM.
Take `COC(=O)c1c(C)[nH]c(C(=O)/C=C/c2cccc(Cl)c2)c1C`: the AC35 was 839 nM.
With `Nc1c(N(Cc2ccccc2)C(=O)COc2ccc([N+](=O)[O-])cc2)c(=O)[nH]c(=O)n1Cc1ccccc1`, the AC35 was 303 nM.
As for `Cc1nnc2n(c1=O)N=C(c1ccc(Cl)cc1)CS2`, the figure is 33.5 nM.
Take `COc1ccc(-c2cc3ccccc3oc2=O)cc1NC(=O)c1ccc([N+](=O)[O-])o1`: the AC35 was 837 nM.
On to `O=C1NC(=O)N(Cc2ccco2)C(=O)/C1=C/C=C/c1ccco1`, for which the AC35 was 12300 nM.
Turning to `Cc1cc(=O)oc2cc(NC(=O)c3cccc(S(C)(=O)=O)c3)ccc12`, the AC35 was 526 nM.
On to `COc1cc(/C=N/n2cnc3scc(-c4cccs4)c3c2=O)cc(OC)c1OC`, for which the AC35 is 177 nM.
`C[C@@]12C(=O)Nc3ccc(F)cc3C(=O)N1[C@H]1c3cc(Cl)ccc3OC[C@@H]1[C@@H]2c1ccccc1`: the AC35 was 1820 nM.
On to `COc1cccc(CNC(=O)COC(=O)c2ccc(-c3ccc(O)cc3)cc2)c1`, for which the AC35 is 3650 nM.
As to `CC(=O)c1ccc(N2CCN(C(=O)c3cccc(Oc4ccccc4)c3)CC2)cc1`, the AC35 was 1270 nM.
On to `COc1cc(-c2nccc3cc4c(cc23)OCO4)cc(OC)c1OC`, for which the AC35 was 61.7 nM.
Take `COc1cc(-c2[nH]ncc2CN2CCSCC2)cc(OC)c1OC`: the AC35 was 3500 nM.
Take `CCc1ccc(N2C(=O)NC(=O)/C(=C\C=C\c3ccco3)C2=O)cc1`: the AC35 is 1740 nM.
`CC(=O)C1=C(O)C(=O)N(c2ccc(Br)cn2)C1c1ccc(Br)cc1` (stereo unspecified): the AC35 was 55.2 nM.
Regarding `O=C(COc1ccccc1CNCc1ccccc1)Nc1ccccc1`, the AC35 was 890 nM.
Consider `CC(=O)Nc1ccc(CNc2ncnc3ccc(-c4c(C)noc4C)cc23)cc1`, for which the AC35 is 264 nM.
Consider `CCCCNC(=O)c1cc(-c2ccc(F)cc2)on1`, for which the AC35 was 806 nM.
Regarding `Cc1ccc(-c2cc(C(=O)NCC(c3ccccc3)N(C)C)c3ccccc3n2)o1` (stereo unspecified), the AC35 was 3300 nM.
As for `Cc1ccc(C(=O)N/C(=C/c2cccs2)C(=O)NCCc2c[nH]c3ccccc23)cc1`, the figure is 1170 nM.
As for `Nc1cc2c(cc1Br)-c1c(C(=O)O)cccc1C2O` (stereo unspecified), the AC35 is 2680 nM.
As for `COc1ccc(C2=NOC(C(=O)NCc3cccs3)C2)cc1` (stereo unspecified), the AC35 is 1140 nM.
As for `CCOc1ncccc1C(=O)Nc1cc2c(cc1Br)OCCO2`, the figure is 169 nM; as for `CCOC(=O)N/N=C/c1ccc(N(CC)CC)cc1O`, 2580 nM.
As for `CCn1c(=O)c2cc(C(=O)NCCCOC)sc2c2ccccc21`, the AC35 is 177 nM.
Turning to `CCC(C)C(=O)OC1CCC=C2C=CC(C)C(CCC3CC(O)CC(=O)O3)C21` (stereo unspecified), the AC35 is 499 nM.
Consider `O=C(Nc1cc(=O)[nH]c(=O)[nH]1)c1cc(Cl)ccc1Cl`, for which the AC35 was 3150 nM.
Regarding `CCOC(=O)N1CCC(NC(=O)c2ccc3c(c2)N=C(C)c2c(C)ccc(C)c2S3)CC1`, the AC35 is 940 nM.
In the case of `COCCNC(=S)N1CCc2cc(OC)c(OC)cc2C1c1cccs1` (stereo unspecified) it was 352 nM; in that of `COc1ccc(-n2c(=S)[nH]c3cc(C(=O)NC4CCCCC4)ccc3c2=O)c(OC)c1`, 414 nM; in that of `O=c1[nH]c(=O)n([C@H]2C[C@H](O)[C@@H](CO)O2)cc1I`, 4150 nM.
`COc1cc2c(cc1OC)CN(c1ccc(-c3ccccc3OC)nn1)CC2`: the AC35 is 7870 nM.
As for `COc1cccc(C(NC(C)=O)c2nc(-c3ccccc3C)cs2)c1` (stereo unspecified), the figure is 678 nM.
Consider `Cc1ccc(C)c(NC(=S)NC(NC(=O)Cc2cccc3ccccc23)C(Cl)(Cl)Cl)c1` (stereo unspecified), for which the AC35 was 3550 nM.
For `CC(C)c1c(C(=O)Nc2ccccc2)c(-c2ccccc2)c(-c2ccc(F)cc2)n1CC[C@@H](O)C[C@@H](O)CC(=O)O`, the AC35 was 1260 nM.
With `Nc1nc(CN2CCN(Cc3ccccc3)CC2)nc(Nc2ccc3c(c2)OCCO3)n1`, the AC35 is 251 nM.
Consider `CCOC(=O)c1[nH]c(C)c(C(=O)Nc2cc(Cl)ccc2C)c1C`, for which the AC35 is 2240 nM.
For `Nc1nc(-c2ccccn2)nc(N)c1Cc1ccc(Cl)cc1Cl`, the AC35 is 1480 nM.
As for `Cc1cc(C)cc(-n2c3ccc(NC(=O)Cc4cccc5ccccc45)cc3c(=O)n2C)c1`, the figure is 5010 nM.
On to `O=S(=O)([N-]c1nc2ccccc2nc1-n1cc[n+](Cc2ccccc2)c1)c1ccc(Cl)cc1`, for which the AC35 is 89.8 nM.
As for `COc1ccc(CC(=O)N(Cc2ccccc2)c2ccc(C)cc2)cc1OC`, the AC35 is 1040 nM.
Turning to `O=C(O)c1ccc(CN2C(=O)c3cccc4c([N+](=O)[O-])ccc(c34)C2=O)cc1`, the AC35 is 1140 nM.
For the compound `NC1(C(=O)O)CSSC1`, the AC35 is 3050 nM.
Turning to `CCN(CCCNC(=O)CCCOc1cc(=O)n(C)c2ccccc12)Cc1ccccc1`, the AC35 is 510 nM.
As to `CN(Cc1ccccc1)c1nc2c(c(=O)n(C)c(=O)n2C)n1CCCc1ccccc1`, the AC35 was 893 nM.
As to `CC(C)n1cc(NC(=O)c2cc(-c3ccccc3)on2)cn1`, the AC35 is 568 nM.
As for `COc1ccc([C@@H]2[C@@H]3C(=O)N(C(C)(C)C)C(=O)[C@@H]3[C@]3(Cc4ccccc4)C(=O)N(c4cccc(Cl)c4)C(=O)N23)cc1`, the AC35 is 2180 nM.
Consider `Cc1ccc(C(=O)N/C(=C\c2cccs2)C(=O)NCCc2c[nH]c3ccccc23)cc1C`, for which the AC35 is 116 nM.
Turning to `CCc1ccc(N2C(=O)Nc3ccccc3C2(O)C(=O)N2CCN(c3ccccn3)CC2)cc1` (stereo unspecified), the AC35 is 493 nM.
`COc1cccc(C2=NOC(C(=O)NCc3ccccc3)C2)c1` (stereo unspecified): the AC35 was 102 nM.
Take `CC(=O)Nc1ccc2cc3ccc(NC(C)=O)cc3nc2c1`: the AC35 was 838 nM.
`CC(=O)Nc1sc(C)c(C)c1C(=O)OCC(=O)Nc1ccccc1`: the AC35 is 1920 nM.
On to `COc1ccccc1/C=N/NC(=O)c1cc2c(OC)c(OC)ccc2[nH]1`, for which the AC35 is 987 nM.
Consider `COc1cccc(C(=O)Nc2ccc3c(c2)C(=O)c2ccccc2C3=O)c1`, for which the AC35 is 121 nM.
As to `C[C@@H](NC(=O)c1ncn2c1c(=O)[nH]c1ccc(Br)cc12)c1ccccc1`, the AC35 is 210 nM.
In the case of `Cc1ccc(N=Nc2c(N)nn(-c3ccccc3)c2N)cc1`, the AC35 is 56.1 nM.
Turning to `O=C(N/N=C/c1cccnc1)c1cc(-c2ccccc2OCc2ccccc2)n[nH]1`, the AC35 is 2460 nM.
As to `C[C@@]12C(=O)Nc3cc(F)c(F)cc3C(=O)N1[C@H]1c3cc(Cl)ccc3OC[C@@H]1[C@@H]2c1ccccc1`, the AC35 is 1600 nM.
As for `COc1ccc2c(c1)[C@H]1[C@H](CO2)[C@H](c2ccccc2)[C@]2(C)C(=O)Nc3cc(C)ccc3C(=O)N12`, the figure is 66.8 nM; as for `O=c1cc(-c2ccc(O)cc2)oc2cc(O)c(C3OC(CO)C(O)C(O)C3O)c(O)c12` (stereo unspecified), 15.1 nM.
`COc1ccc(-n2c(NNC(C)=O)nc3sc4c(c3c2=O)CCCC4)cc1`: the AC35 is 1860 nM.
Consider `COc1cccc(C(=O)Nc2ncc3c(n2)CC(c2ccc(OC)cc2OC)CC3=O)c1` (stereo unspecified), for which the AC35 was 7610 nM.
Consider `COc1ccc2c(c1)OC[C@H]1[C@H]2N2C(=O)c3cc(Br)ccc3NC(=O)[C@@]2(C)[C@H]1c1ccccc1`, for which the AC35 was 944 nM.
